No end group written: not given here.
How the values were obtained:
mouse IgG, Fc fragment = experiment: Binding of mouse IgG Fc fragment on POROS 19-mer peptide column; details: peptide synthesized directly on POROS NH2 resin via C-terminal end; eluted with acid buffer
Description: (§1) The 19-mer peptide ([…]) (SEQ ID NO: 7) selected from protein A and G digests was directly synthesized on 20 μm amine-functionalized™ particles by standard FMOC chemistry. About 700 mg of resin was dry packed into a 4.6 mm D×50 mm L PEEK column equipped with 2 μm frits. The packed column was attached with appropriate adapters to a PerSeptive Biosystems 9050 plus continuous flow peptide synthesizer. Upon completion of synthesis, the resin was dried and deprotected using 95% TFA/5% triisopropylsilane for 24 hrs. The final peptide-support conjugate was packed using POROS™ Self Pack® column packing device at flow rate 10 ml/min onto 4.6 mm D×50 mm L column for evaluation as affinity supports.
(§2) The 19-mer peptide column (4.6 mm D×50 mm L) was equilibrated with 20 CVs of equilibration buffer, 20 mM tris (pH 7). About 500 μl of 1 mg/ml of each of the following samples was injected onto the 19-mer peptide column (4.6 mm D×50 mm L): 1) pure IgGs from either human or mouse or chicken, 2) IgA (whole molecule), 3) human serum, 4) fetal bovine serum (1:10 dilution), or 5) 500 μl of 1 mg/ml mouse […]. After injection, the column was washed with 20 CVs of a mixture of 20 mM tris buffer and 0.4 M NaCl (pH 7). The remaining bound proteins were eluted with 20 CVs of 12 mM HCl. […] The bound fractions were collected and analyzed by SDS-Polyacrylamide gel electrophoresis.

IgG [1] = experiment: Immunoglobulin class and species selectivity of POROS 19-mer peptide column; format: binding
Description: as §1, §2

mouse IgG (Fc fragment) = experiment: Solution phase peptide screening (SEC - reversed phase) of protein A and G digests; format: binding; details: native and denatured recombinant protein A and G digests
Description: (§3) 5 mg each of either mouse IgG (whole) or the Fc fragment was incubated with 20 mg of natural library and protein A and G digests, respectively. The mixture was dissolved in 1 ml of a mixture of 25 mM sodium phosphate buffer and 0.15 M NaCl (pH 7) overnight at 4° C. After incubation, several chromatographic runs through the Superdex SEC and RP columns were conducted with 200 of the protein and peptide mixture injected through the Superdex column during each run. The flow rate for the Superdex column was 0.75 m/min with the 25 mM sodium phosphate buffer and 0.15 M NaCl (pH 7) mixture. The early eluting protein peak was collected directly onto the RP column. The remaining portion of the peak was washed off the SEC. The mouse IgG (whole) or Fc fragment and its associated peptides were then eluted from the RP column under the following conditions:
Fractions corresponding to bound peptide peaks were lyophilized and redissolved in 1001 of 0.1% TFA/DIW for mass spec analysis by MALDI-TOF.

IgG [2] = experiment: Solid phase screening of polyclonal antibody digests on immobilized IgG column; format: binding; details: tryptic digests of anti-IgG (Fc specific) polyclonal antibodies
Description: […] POROS™ EP (epoxy) was suspended in 5 ml 0.1 M phosphate buffer (pH 9) containing 20 mg IgG. After the beads were well suspended, 4 ml 0.1 M phosphate buffer (pH 9) containing 2 M NA2SO4 were added to the mixture and it was shaken overnight at room temperature. The beads were then washed with 10 mM PBS (pH 7.5) and stored in the refrigerator before they were packed into columns.
The IgG activated POROS™ was packed into 4.6 mm D×100 mm L PEEK columns using Self Pack® assembly on BioCAD™ at 20 ml/min flow rate. 5 to 50 mgs peptide library (natural peptide library or polyclonal antibody digest) dissolved in 0.5 to 2.5 ml of 10 mM PBS (pH 7.5) was injected onto the column at flow rate of 0.5 ml/min. After wash with 5 CVs of PBS, the bound portion was eluted with 10 mM HCl and collected manually. The fraction was concentrated down to approximately 500 μl and at least 80% of it was injected onto a 4.6 mm D×250 mm L Vydac C18 column at 1 m/min. The RP column was equilibrated with 0.1% TFA/DIW and peptides were eluted with 15 CVs of a 0-40% acetonitrile gradient at flow rate of 1 ml/min. […] The fractions corresponding to the bound peptides were concentrated in Speed Vac and analyzed by MALDI-TOF and Edman sequencing. […]
Polyclonal antibodies are an interesting and logical source of peptides since they have specific antigen binding sites. […] The amino acid sequence was determined to be […] […]

IgG [3] = experiment: IgG purification from human serum on POROS-immobilized peptide column; format: binding; details: for IgG binding capacity of POROS-peptide column: peptide immobilized on POROS AL via N-terminal end
Description: 1 g POROS™ AL (aldehyde) was suspended in 10 mM PBS (pH 7.5) containing 100 mg sodium cyanoborohydride (NaCNBH3). 5 to 20 mg of each of the peptides selected by various screening procedures was added to the resin and the mixture was shaken overnight at room temperature. 100 mg sodium borohydride (NaBH4) was then added and the mixture was shaken for another 2 hrs. The beads were then washed with PBS and packed into 4.6 mm D×100 mm L column using POROS™ Self Pack® device.
100 μl of 1:10 diluted serum was injected onto the peptide column which was equilibrated with 20 mM tris (pH 8.0) at 5 ml/min. The bound proteins were eluted with 0-1 M NaCl gradient in 15 CVs. Fractions were collected manually and concentrated by Speed Vac for subsequent analysis by SDS-polyacrylamide gel electrophoresis.
The […] (SEQ ID NO: 8) peptide with heme group was immobilized on POROS™AL® (aldehyde) via the N-terminal end. This POROS™-peptide conjugate was used to separate IgG from serum at pH 8 under a 0-1 M NaCl gradient. […] To determine the nature of interaction, the purification profile of IgG separated on the POROS™-peptide column was compared with the IgG purified on standard ion exchange columns such as POROS™-CM and POROS™ HQ. […] The effect of the varying loading densities of peptide (from 10 mg/g POROS™ to 100 mg/g POROS™) on specificity and capacity for IgG binding was also investigated. The specificity of the peptide for IgG binding was also investigated. […] At low loading density (10 mg/g POROS™) IgG bound primarily via ionic interaction requiring elution of bound IgG with salt gradient. At higher loading density ([…]) IgG bound strongly and eluted with acid buffer. The binding capacity varied from 1-2 mg/ml column volume at lower ligand density to 30 mg/ml column volume at higher ligand densities.
A simplified analog of the heme peptide ([…]) (SEQ ID NO: 9) was synthesized and immobilized on POROS™ AL via the N-terminal end. […] The bound IgG was eluted from the GAQGHTVBK (SEQ ID NO: 9)-POROS™ column with 100 mM NaCl. The IgG binding capacity was determined to be 5 mg/ml column volume. Loading densities from 20 mg/g to 40 mg peptide /g POROS™ were evaluated. At these ligand densities, the specificity of IgG binding was not affected, but the capacity was reduced.

[4] = test system: mouse IgG (whole fragment); experiment: Solution phase and solid phase peptide screening of natural peptide library; format: binding
Description: as §3
The IgG activated POROS™ was packed into 4.6 mm D×100 mm L PEEK columns using Self Pack® assembly on BioCAD™ at 20 ml/min flow rate. 5 to 50 mgs peptide library (natural peptide library or polyclonal antibody digest) dissolved in 0.5 to 2.5 ml of 10 mM PBS (pH 7.5) was injected onto the column at flow rate of 0.5 ml/min. After wash with 5 CVs of PBS, the bound portion was eluted with 10 mM HCl and collected manually. […] The fractions corresponding to the bound peptides were concentrated in Speed Vac and analyzed by MALDI-TOF and Edman sequencing. […]

IgG [5] = experiment: IgG purification from human serum on POROS-immobilized peptide column; format: binding; details: immobilized via carboxyl groups of heme and free C-terminal end
HSA = target: T1, HSA (Homo sapiens, UniProt P02768); experiment: HSA binding to heme peptide POROS; details: only under very hydrophobic conditions (200 mM sodium sulphate, pH 7 buffer)
T1 construct: purchased Sigma Chemical Co (St. Louis, Mo.)

Row | Sequence | binding of mouse IgG Fc fragment (capacity and selectivity) (mouse IgG, Fc fragment) | selectivity IgG versus IgA (IgG [1]; POROS 19-mer peptide column) | species selectivity of IgG binding (IgG [1]; human versus rabbit, goat or mouse IgG) | selected as binder in solution phase screening (mouse IgG (Fc fragment)) | selectivity of peptide isolated from denatured antibody digest (IgG [2]) | specificity of IgG binding from human serum (IgG [3]; pH 8, immobilized on POROS via N-terminal end) | IgG binding capacity of POROS-peptide column (IgG [3]; pH 8) [mg/ml column volume] | selected as binder in library screening [4] | IgG binding when immobilized via carboxyl groups (IgG [5]) | binding to HSA (HSA) | selectivity for IgG from serum versus ion exchange columns (IgG [3]; compared with POROS-CM and POROS HQ, similar conditions) | IgG binding capacity at higher ligand densities (IgG [3]; higher loading density (100 mg/mg)) [mg/ml column volume] | IgG binding capacity at lower ligand density (IgG [3]; low loading density (10 mg/g POROS)) | purity of IgG purified from serum (IgG [3]; pH 8, 0-1 M NaCl gradient, versus POROS-Protein A)
1 | TVTEKPEVIDASELTPAVT (also: synthesized on POROS) [19-mer peptide selected from protein A and G digests, synthesized on POROS] | low capacity but high selectivity | more selective for IgG than IgA | Human IgG bound more selectively | identified | – | – | – | – | – | – | – | – | – | –
2 | GAQGHTVEK (OTHER INFORMATION: Description of Artificial Sequence: synthetic peptide) [simplified analog of the heme peptide; also isolated from polyclonal antibody digests] | – | – | – | – | selective for IgG | bound specifically | 5 | – | – | – | – | – | – | –
3 | CAQCHTVEK (cysteine pairing not given here; also: heme group) [tryptic digest peptide of cytochrome c with heme group, immobilized on POROS AL] | – | – | – | – | – | – | 10 | yielded one peptide | no IgG binding | bound very weakly | higher selectivity for IgG from serum than either of the ion exchange columns | 30 | 1-2 mg/ml column volume | comparable purity to that of IgG separated on POROS™-Protein A column

— US6794148B2, “High speed, automated, continuous flow, multi-dimensional molecular selection and analysis” (PerSeptive Biosystems, Inc., priority 1995, dated 2004)
